Laboratory results from patent US11090304B2 (Amgen Inc., priority 2018, dated 2021).

Target: GDP-bound KRAS protein (aa 1-169), containing both G12C and C118A amino acid substitutions (Homo sapiens, UniProt P01116, C118A/G12C)
Assay: Coupled nucleotide exchange assay (SOS-mediated, AlphaScreen)
Format: biochemical

Molecule	Coupled exchange IC50 (5 min) (5 min compound pre-incubation)	also measured
C=CC(=O)NC1CN(c2nc(=O)n(-c3c(C)ccnc3C(C)C)c3nc(-c4c(O)cccc4F)c(F)cc23)C1 (single isomer, unassigned) [Example 75-6, (M)-N-(1-(6-fluoro-7-(2-fluoro-6-hydroxyphenyl)-1-(4-methyl-2-(2-propanyl)-3-pyridinyl)-2-oxo-1,2-dihydropyrido[2,3-d]pyrimidin-4-yl)-3-azetidinyl)-2-propenamide]	85 | nda μM	–
C=CC(=O)N1C[C@@H](C)N(c2nc(=O)n(-c3c(C(C)C)ncnc3C(C)C)c3nc(-c4ccccc4F)c(Cl)cc23)[C@H](C)C1 [Example 87-3]	17.3 | nda μM	–
C=CC(=O)N1CCN(c2nc(=O)n(-c3c(CC)cccc3CC)c3nc(N4CCC[C@@H]4C#N)c(Cl)cc23)[C@@H](C)C1 [Example 66-23, (2R)-1-(6-chloro-1-(2,6-diethylphenyl)-4-((2S)-2-methyl-4-(2-propenoyl)-1-piperazinyl)-2-oxo-1,2-dihydropyrido[2,3-d]pyrimidin-7-yl)-2-pyrrolidinecarbonitrile]	160 | nda μM	–
C=CC(=O)N1CCN(c2nc(=O)n(-c3ccccc3C)c3nc(OCCCC)c(Cl)cc23)[C@@H](C)C1 [Example 60-13, 7-butoxy-6-chloro-1-(2-methylphenyl)-4-((2S)-2-methyl-4-(2-propenoyl)-1-piperazinyl)pyrido[2,3-d]pyrimidin-2(1H)-one]	85 | nda μM	–
C=CC(=O)N1CCN(c2nc(=O)n(-c3c(C)ccnc3C(C)C)c3nc(-c4ccccc4F)c(Cl)cc23)[C@@H](C(F)(F)F)C1 (single isomer, unassigned) [Example 78-9-2]	0.423 | nda μM	–
C=CC(=O)N1CCN(c2nc(=O)n(-c3ncccc3C3(C#N)CC3)c3nc(-c4ccccc4F)c(Cl)cc23)[C@@H](C)C1 [Example 54-39, 1-(2-(6-chloro-7-(2-fluorophenyl)-4-((2S)-2-methyl-4-(2-propenoyl)-1-piperazinyl)-2-oxopyrido[2,3-d]pyrimidin-1(2H)-yl)-3-pyridinyl) cyclopropane carbonitrile]	32.1 | nda μM	–
C=CC(=O)N1CCN(c2nc(=O)n(-c3c(C)nc(C)nc3C(C)C)c3nc(-c4c(O)cccc4F)c(Cl)cc23)[C@@H](C)C1 (single isomer, unassigned) [Example 55-4-2]	0.642 | nda μM	–
C=CC(=O)N1CCC(Oc2nc(=O)n(-c3c(C)ccnc3C(C)C)c3nc(-c4ccccc4F)c(Cl)cc23)C1 (racemic) [Example 79-2, (M)-6-chloro-7-(2-fluorophenyl)-1-(4-methyl-2-(2-propanyl)-3-pyridinyl)-4-((1-(2-propenoyl)-3-pyrrolidinyl)oxy)pyrido[2,3-d]pyrimidin-2(1H)-one]	28.6 | nda μM	–
C=CC(=O)N1CCN(c2nc(=O)n(-c3ccccc3C(C)C)c3nc(-c4ccco4)c(Cl)cc23)[C@@H](C)C1 [Example 54-47, 6-chloro-7-(2-furanyl)-4-((2S)-2-methyl-4-(2-propenoyl)-1-piperazinyl)-1-(2-(2-propanyl)phenyl)pyrido [2,3-d]pyrimidin-2(1H)-one]	10.7 | nda μM	–
C=CC(=O)N1CCN(c2nc(=O)n(-c3c(C)ccnc3C(C)C)c3nc(Cl)c(Cl)cc23)[C@@H](C)C1 (atropisomer, axis not shown; (M)) [Example 61-2-2, (M)-6,7-dichloro-1-(4-methyl-2-(2-propanyl)-3-pyridinyl)-4-((2S)-2-methyl-4-(2-propenoyl)-1-piperazinyl)pyrido[2,3-d]pyrimidin-2(1H)-one]	2.37 | nda μM	–
C=CC(=O)N1CCN(c2nc(=O)n(-c3ccccc3C(C)C)c3nc(-c4cc(F)ccc4O)c(Cl)cc23)[C@@H](C)C1 (single isomer, unassigned) [Example 54-78-1]	7.26 | nda μM	–
Mixture of (M)-6-chloro-7-((2R)-2-methyl-1-piperidinyl)-4-((2S)-2-methyl-4-(2-propenoyl)-1-piperazinyl)-1-(2-(2-propanyl)phenyl)pyrido[2,3-d]pyrimidin-2(1H)-one and (M)-6-chloro-7-((2S)-2-methyl-1-piperidinyl)-4-((2S)-2-methyl-4-(2-propenoyl)-1-piperazinyl)-1-(2-(2-propanyl)phenyl)pyrido[2,3-d]pyrimidin-2(1H)-one [Example 115]	–	IC50 (read-out: Coupled exchange IC50 (5 min), 5 min compound pre-incubation): 2920 nM
C=CC(=O)N1CCN(c2nc(=O)n(-c3c(C(C)C)ncnc3N(C)C)c3nc(-c4ccccc4F)c(Cl)cc23)[C@@H](C)C1 (single isomer, unassigned) [Example 140-2]	0.677 | nda μM	–
C=CC(=O)N1CCN(c2nc(=O)n(-c3c(C)cccc3CC)c3nc(-c4ccccc4F)c(F)cc23)[C@@H](C)C1 (single isomer, unassigned) [Example 57-13-2]	8.13 | nda μM	–
C=CC(=O)N1CCN(c2nc(=O)n(-c3ccccc3CC#N)c3nc(-c4c(O)cccc4F)c(Cl)cc23)[C@@H](C)C1 [Example 54-19, (2-(6-chloro-7-(2-fluoro-6-hydroxyphenyl)-4-((2S)-2-methyl-4-(2-propenoyl)-1-piperazinyl)-2-oxopyrido[2,3-d]pyrimidin-1(2H)-yl)phenyl) acetonitrile]	12.2 | nda μM	–
C=CC(=O)N1CCN(c2nc(=O)n(-c3ccccc3C(C)C)c3nc(N4CCCCC4C)c(Cl)cc23)[C@@H](C)C1 (stereo partly drawn) [Example 69-5]	5.64 | nda μM	–
C=CC(=O)N1CCN(c2nc(=O)n(-c3c(CC)cccc3CC)c3nc(-c4c(O)cccc4F)ccc23)[C@@H](C)C1 [Example 107, 1-(2,6-Diethylphenyl)-7-(2-fluoro-6-hydroxyphenyl)-4-((2S)-2-methyl-4-(2-propenoyl)-1-piperazinyl)pyrido[2,3-d]pyrimidin-2(1H)-one]	–	Coupled exchange IC50 (2 h) (2 h compound pre-incubation): nda | 3.14 μM
C=CC(=O)N1CCN(c2nc(=O)n(-c3c(F)cccc3C(C)C)c3nc(-c4ccccc4F)c(F)cc23)[C@@H](C)C1 (single isomer, unassigned) [Example 59-3-2]	33 | nda μM	–
C=CC(=O)N1CCN(c2nc(=O)n(-c3scnc3C3CC3)c3nc(-c4c(O)cccc4F)c(Cl)cc23)[C@@H](C)C1 [Example 56-3, 6-chloro-1-(4-cyclopropyl-1,3-thiazol-5-yl)-7-(2-fluoro-6-hydroxyphenyl)-4-((2S)-2-methyl-4-(2-propenoyl)-1-piperazinyl)pyrido[2,3-d]pyrimidin-2(1H)-one]	3.85 | nda μM	–
C=CC(=O)N1CCN(c2nc(=O)n(-c3cccnc3C(C)(C)C)c3nc(-c4ccccc4F)c(Cl)cc23)[C@@H](C)C1 (single isomer, unassigned) [Example 54-112-2]	5.02 | nda μM	–
C=CC(=O)N1CCN(c2nc(=O)n(-c3ccccc3)c3nc(-c4c(O)cccc4F)c(Cl)cc23)[C@@H](C)C1 [Example 100, 6-Chloro-7-(2-fluoro-6-hydroxyphenyl)-4-((2S)-2-methyl-4-(2-propenoyl)-1-piperazinyl)-1-phenylpyrido[2,3-d]pyrimidin-2(1H)-one]	3.45 | nda μM	–
C=CC(=O)N1CCN(c2nc(=O)n(-c3c(C)cnn3C(C)(C)C)c3nc(-c4ccccc4F)c(Cl)cc23)[C@@H](C)C1 (single isomer, unassigned) [Example 55-38-1]	0.534 | nda μM	–
C=CC(=O)N1CCN(c2nc(=O)n(-c3c(CC)cccc3CC)c3nc(N4CCOC(CC)C4)c(Cl)cc23)[C@@H](C)C1 (stereo partly drawn) [Example 66-15, 6-chloro-1-(2,6-diethylphenyl)-7-(2-ethyl-4-morpholinyl)-4-((2S)-2-methyl-4-(2-propenoyl)-1-piperazinyl)pyrido[2,3-d]pyrimidin-2(1H)-one]	89.7 | nda μM	–
C=CC(=O)N1CCN(c2nc(=O)n(-c3ccccc3C(C)C)c3nc(-c4ncccc4Cl)c(Cl)cc23)[C@@H](C)C1 [Example 54-94, 6-chloro-7-(3-chloro-2-pyridinyl)-4-((2S)-2-methyl-4-(2-propenoyl)-1-piperazinyl)-1-(2-(2-propanyl)phenyl)pyrido [2,3-d]pyrimidin-2(1H)-one]	1.19 | nda μM	–
C=CC(=O)N1CCN(c2nc(=O)n(-c3ncccc3C3(C#N)CC3)c3nc(-c4c(O)cccc4F)c(Cl)cc23)[C@@H](C)C1 [Example 54-40, 1-(2-(6-chloro-7-(2-fluoro-6-hydroxyphenyl)-4-((2S)-2-methyl-4-(2-propenoyl)-1-piperazinyl)-2-oxopyrido[2,3-d]pyrimidin-1(2H)-yl)-3-pyridinyl) cyclopropane carbonitrile]	21.3 | nda μM	–
C=CC(=O)N1CCN(c2nc(CO)c(C(=O)N3[C@@H](C)CC[C@@H]3C)c3nc(-c4ccccc4F)c(Cl)cc23)CC1 [Example 149, 1-(4-(3-Chloro-8-(((2S,5S)-2,5-dimethyl-1-pyrrolidinyl)carbonyl)-2-(2-fluorophenyl)-7-(hydroxymethyl)-1,6-naphthyridin-5-yl)-1-piperazinyl)-2-propen-1-one]	20.6 | nda μM	–
C=CC(=O)N1CCN(c2nc(=O)n(-c3c(CO)cccc3C(C)C)c3nc(-c4ccccc4F)c(Cl)cc23)[C@@H](C)C1 (single isomer, unassigned) [Example 55-43-1]	2.87 | nda μM	–
C=CC(=O)N1CCN(c2nc(=O)n(CC(F)(F)F)c3nc(-c4c(O)cccc4F)c(Cl)cc23)[C@@H](C)C1 [Example 54-7, 6-chloro-7-(2-fluoro-6-hydroxyphenyl)-4-((2S)-2-methyl-4-(2-propenoyl)-1-piperazinyl)-1-(2,2,2-trifluoroethyl) pyrido [2,3-d]pyrimidin-2(1H)-one]	1.75 | nda μM	–
C=CC(=O)N1CCN(c2nc(=O)n(-c3c(C)cccc3C3CC3)c3nc(-c4c(O)cccc4F)c(F)cc23)[C@@H](C)C1 (single isomer, unassigned) [Example 58-13-1]	1.56 | nda μM	–
C=CC(=O)N1CCN(c2nc(=O)n(-c3c(C)ccnc3C(C)C)c3nc(-c4ccccc4F)c(F)cc23)[C@@H](C)C1 (single isomer, unassigned) [Example 58-4-2]	4.82 | nda μM	–
